From patent publication US5658910A, “Nicotinic acid esters” (Pharmacia AB, priority 1992, dated 1997)
Where a name gives a salt, the structure may show the parent alone.

How the values were obtained:
5HT1A-receptors = biological target: T1, 5HT1A-receptors (Bos taurus, UniProt F6Q2H9); experiment: Affinity for 5HT1A-receptors (Test 2, Peroutka binding assay)
T1 construct: from tissue
T1 sequence (F6Q2H9 1-422): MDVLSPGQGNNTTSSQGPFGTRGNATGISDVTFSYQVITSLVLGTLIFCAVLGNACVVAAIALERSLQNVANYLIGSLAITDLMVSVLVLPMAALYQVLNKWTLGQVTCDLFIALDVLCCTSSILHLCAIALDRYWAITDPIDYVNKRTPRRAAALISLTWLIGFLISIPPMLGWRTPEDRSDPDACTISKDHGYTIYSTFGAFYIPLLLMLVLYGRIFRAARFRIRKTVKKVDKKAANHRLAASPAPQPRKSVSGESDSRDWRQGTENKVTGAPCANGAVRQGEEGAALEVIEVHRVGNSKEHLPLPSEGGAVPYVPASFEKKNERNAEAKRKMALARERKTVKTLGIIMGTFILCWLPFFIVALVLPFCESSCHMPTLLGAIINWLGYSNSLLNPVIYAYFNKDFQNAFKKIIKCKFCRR

5HT2-receptors = biological target: T2, 5HT2-receptors (Rattus norvegicus, UniProt P14842); experiment: Affinity for 5HT2-receptors (Test 1, 3H-ketanserin binding, Leysen et al.); conditions: 3H-ketanserin as ligand
T2 construct: from tissue
Method: Test 1. Affinity for 5HT2-receptors
The binding assay was carried out essentially as described by Leysen et al., (Mol. Pharmcol. 21, 301-314, 1982) using 3 H-kezanserine as ligand.

T2 sequence (P14842 whole entry): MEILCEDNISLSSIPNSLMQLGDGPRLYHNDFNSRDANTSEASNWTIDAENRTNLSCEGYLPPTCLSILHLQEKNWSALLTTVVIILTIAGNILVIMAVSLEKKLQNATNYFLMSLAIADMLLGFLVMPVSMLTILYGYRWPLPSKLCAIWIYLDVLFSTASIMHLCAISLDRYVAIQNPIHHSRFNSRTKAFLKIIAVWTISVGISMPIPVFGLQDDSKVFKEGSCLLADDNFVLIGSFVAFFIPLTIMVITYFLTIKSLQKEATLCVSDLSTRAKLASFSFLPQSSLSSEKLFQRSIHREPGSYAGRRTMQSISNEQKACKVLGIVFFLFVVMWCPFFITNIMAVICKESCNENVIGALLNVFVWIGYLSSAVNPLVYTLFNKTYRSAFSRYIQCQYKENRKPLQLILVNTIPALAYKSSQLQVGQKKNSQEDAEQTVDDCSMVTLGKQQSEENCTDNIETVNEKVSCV

Row | Structure (SMILES) | Ki (5HT1A-receptors) | Ki (5HT2-receptors)
1 | COC(=O)c1cccnc1N1CCN(CCCC(c2ccc(F)cc2)c2ccc(F)cc2)CC1 [2:4, 1-[4,4 -Bis(p-fluorophenyl)butyl]-4-(3-methoxycarbonyl-2-pyridyl)-piperazine, hydrochloride] | 0.7 nM | 4 nM
2 | O=C(OCc1ccccn1)c1cccnc1N1CCN(CCCC(c2ccc(F)cc2)c2ccc(F)cc2)CC1 [2:10, 1-[4,4-Bis(p-fluorophenyl)butyl]-4-[3-(2-pyridinylmethoxycarbonyl)-2-pyridyl]-piperazine, hydrochloride] | – | 0.6 nM
3 | CCOC(=O)c1cccnc1N1CCN(CCCC(c2ccc(F)cc2)c2ccc(F)cc2)CC1 [2:1, 3-Pyridinecarboxylic acid (2-(4-(4,4-bis(4-fluorophenyl)butyl)-1-piperazinyl-)ethyl ester hydrochloride] | 1.2 nM | 5.7 nM
4 | CC(C)CCOC(=O)c1cccnc1N1CCN(CCCC(c2ccc(F)cc2)c2ccc(F)cc2)CC1 [2:7, 1-[4,4-Bis(p-fluorophenyl)butyl]-4-(3-isoamyloxycarbonyl-2-pyridyl)-piperazine, hydrochloride] | 14 nM | 2.7 nM
